Data reported in patent US8440710B2, “HSL inhibitors useful in the treatment of diabetes” (Hoffmann-La Roche Inc., priority 2009, dated 2013).

Target: T1, human HSL (Homo sapiens, UniProt Q05469)
T1 construct: generate a full length human HSL ORF with a 3′-His6 tag; made in house; host or cells: High 5 insect cells (baculovirus, pFast-BAC)
T1 sequence (Q05469 1-1076): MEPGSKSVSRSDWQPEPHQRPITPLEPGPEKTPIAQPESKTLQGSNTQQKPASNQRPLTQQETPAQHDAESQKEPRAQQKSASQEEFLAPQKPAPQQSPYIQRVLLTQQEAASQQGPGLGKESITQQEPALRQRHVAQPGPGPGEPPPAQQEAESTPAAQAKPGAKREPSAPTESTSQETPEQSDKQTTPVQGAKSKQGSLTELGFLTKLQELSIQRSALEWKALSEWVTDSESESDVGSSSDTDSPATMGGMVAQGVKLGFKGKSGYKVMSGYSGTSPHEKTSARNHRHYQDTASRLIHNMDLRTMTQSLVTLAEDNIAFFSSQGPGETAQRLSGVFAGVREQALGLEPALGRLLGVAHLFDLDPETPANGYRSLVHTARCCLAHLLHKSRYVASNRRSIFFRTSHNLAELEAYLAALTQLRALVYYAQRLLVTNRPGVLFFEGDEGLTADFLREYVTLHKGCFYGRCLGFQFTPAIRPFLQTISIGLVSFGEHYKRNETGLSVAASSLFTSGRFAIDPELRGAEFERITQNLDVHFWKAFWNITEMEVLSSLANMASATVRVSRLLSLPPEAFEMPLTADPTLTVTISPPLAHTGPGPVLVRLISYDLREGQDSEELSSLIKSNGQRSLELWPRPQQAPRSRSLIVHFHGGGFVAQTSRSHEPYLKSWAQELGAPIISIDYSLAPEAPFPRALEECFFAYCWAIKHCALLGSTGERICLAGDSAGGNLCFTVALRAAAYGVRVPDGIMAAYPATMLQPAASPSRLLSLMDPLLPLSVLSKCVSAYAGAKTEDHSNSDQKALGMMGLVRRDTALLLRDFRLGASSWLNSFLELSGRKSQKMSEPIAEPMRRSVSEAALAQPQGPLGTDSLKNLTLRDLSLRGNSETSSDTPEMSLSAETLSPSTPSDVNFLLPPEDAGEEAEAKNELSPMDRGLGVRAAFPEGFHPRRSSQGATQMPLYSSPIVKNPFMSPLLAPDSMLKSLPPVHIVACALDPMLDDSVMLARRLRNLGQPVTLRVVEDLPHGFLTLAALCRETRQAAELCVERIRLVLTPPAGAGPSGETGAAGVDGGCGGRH
Assay: Human Hormone-Sensitive Lipase (HSL) enzyme inhibition assay (colorimetric, DMPT substrate)
Type: biochemical
Conditions: human full length HSL-His6, 2,3-dimercapto-1-propanol tributyrate substrate, 37° C. 20 minutes, absorbance at 405 nm; read-out: HSL hum IC50
Experimental: Production of Human Full Length Hormone Sensitive Lipase-His^6:
1) Cloning: cDNA was prepared from commercial human brain polyA+ RNA and used as a template in overlapping PCR to generate a full length human HSL ORF with a 3′-His6 tag. This full length insert was cloned into the pFast-BAC vector and the DNA-sequence of several single clones was verified. DNA from a correct full length clone with the 3′His6 tag was used to transform the E. coli strain DH10BAC. Resulting bacmid DNA was used to generate a titered baculovirus stock for protein generation. The sequence of the encoded HSL conforms to Swissprot entry Q05469, with the additional C-terminal His6-tag. 2) Protein purification: Culture: 5.5 L, High 5 cells expressing human full length HSL-His^6, 48 hr., containing 25 μM E-64. Cell count: […], 90% viable. Cells were thawed. On ice, cells were suspended in Base Buffer containing 10% glycerol, 25 mM Tris-Cl, 300 mM NaCl, 10 mM imidazole, 10 mM 2-mercaptoethanol, 2 μg pepstatin/ml, 2 μg leupeptin/ml, 2 μg antipain/ml, pH 8.0 at 4° C. in a final volume of 475 ml with 3.75×10^7 cells/ml. […] was done at 3×30 sec., Lubrol PX was added to 0.2% final concentration followed by stirring for 15 min. at 4° C. and centrifugation at 25 k×g, 60 min., 4° C. Soluble proteins were mixed with 60 ml of pre-washed and equilibrated Ni-NTA Agarose (Qiagen 30210) followed by tumbling end-over-end, 45 min., 4° C., centrifugation 1000 rpm 5 min and letting resin settle 5 min. Supernatant was removed, the resin washed in the centrifuge vessel using 5 volumes of Base Buffer containing 0.2% Lubrol PX. Centrifugation was done again, then the supernatant discarded. The resin was poured onto a 0.8 μm membrane in a disposable filter unit (Nalge 450-0080), and washed with 5 volumes of Base Buffer containing 0.2% Lubrol PX. It was then washed with 30 volumes of Base Buffer containing 60 mM imidazole pH 7.5 at 4° C. The protein was eluated with 5 volumes of 25 mM Tris-Cl, 300 mM NaCl, 200 mM imidazole, 10 mM 2-mercaptoethanol, pH 7.5 at 4° C. by tumbling resin with buffer end-over-end, 30 min., 4° C. The resin was captured on a 0.2 μm membrane disposable filter unit (Millipore SCGP U02 RE) and the eluate collected in the reservoir. The eluate was concentrated using a 30 k MWCO centrifugal filter device (Sartorius Vivascience Vivacell 100, VC1022), to 20 ml. It was then dialyzed overnight at 4° C., two times against 2 L of 10% glycerol, 25 mM Tris-Cl, 300 mM NaCl, 0.2 mM EDTA, 0.2 mM DTT, pH 7.5 at 4° C. The protein was filtered using a 0.22 μm disposable filter unit (Millipore SCGP00525). The protein concentration was calculated from absorbance at 280 nm, using 280=0.67 cm-1 mg-1. Yield was 235 mg, total. The protein was stored at −80° C. Human Hormone-Sensitive Lipase (HSL) Enzyme Inhibition Assay:
HSL enzyme activity was measured by a colorimetric assay using 2,3-dimercapto-1-propanol tributyrate (Aldrich, St. Louis, Mo.) as a substrate. Typically, 1.5 mM 2,3-dimercapto-1-propanol tributyrate (DMPT) in 100 mM MOPS, pH 7.2, 0.2 mg/ml fatty acid-free BSA was prepared by sonication at 4° C. to homogenous suspension. Test compounds (2 mM stock in DMSO) were diluted 3 fold in series in DMSO. Compound solutions were diluted 24 fold in 1.5 mM DMPT containing solution and 18 ul per well was added to 384-well microplates (Corning Costar). Twelve microliters per well of human HSL (15 ug/ml) was added and the reaction mixture was incubated at 37° C. for 20 minutes. Six microliters of 12 mM dithio-bis-(2-nitrobenzoic acid) (DTNB) in DMSO plus 1.2% SDS and 0.6% Triton X-100 were added and the mixture was incubated at room temperature for 15 minutes. Product production was monitored by reading absorbance at 405 nm on an Envision Reader (PerkinElmer Life and Analytical Sciences, Shelton, Conn.).

Row | SMILES | IC50 [nM]
1 | CC(Oc1ccc(N2CCC3(CCC(O)CC3)C2=O)cc1)C(F)(F)F (mixture of isomers) [Example 162, 8-Hydroxy-2-[4-(2,2,2-trifluoro-1-methyl-ethoxy)-phenyl]-2-aza-spiro[4.5]decan-1-one] | 220
2 | CC(C)(C)c1ccc(N2CCC3(CCC(C(O)C(F)(F)F)CC3)C2=O)cc1 (single isomer, unassigned) [Example 361, (5α,8α)-2-(4-tert-Butyl-phenyl)-8-(2,2,2-trifluoro-1-hydroxy-ethyl)-2-aza-spiro[4.5]decan-1-one] | 110
3 | O=C1N(c2ccc(OC(F)(F)F)cc2)CC[C@]12CC[C@@H](O)CC2 [Example 1, (5α,8β)-8-Hydroxy-2-(4-trifluoromethoxy-phenyl)-2-aza-spiro[4.5]decan-1-one] | 470
4 | O=C1N(c2ccc(OC(F)(F)F)cc2)CC[C@]12CC[C@H](O)CC2 [Example 2, (5α,8α)-8-Hydroxy-2-(4-trifluoromethoxy-phenyl)-2-aza-spiro[4.5]decan-1-one] | 150
5 | COc1ccc(N2CC[C@]3(CC[C@@H](OCc4ccccc4)CC3)C2=O)cc1 [Example 3, (5α,8β)-8-Benzyloxy-2-(4-methoxy-phenyl)-2-aza-spiro[4.5]decan-1-one] | 610
6 | CCc1ccc(N2CC[C@]3(CC[C@@H](OCc4ccccc4)CC3)C2=O)cc1 [Example 4, (5α,8β)-8-Benzyloxy-2-(4-ethyl-phenyl)-2-aza-spiro[4.5]decan-1-one] | 240
7 | CCc1ccc(N2CC[C@]3(CC[C@@H](O)CC3)C2=O)cc1 [Example 5, (5α,8β)-2-(4-Ethyl-phenyl)-8-hydroxy-2-aza-spiro[4.5]decan-1-one] | 2370
8 | CCCNC(=O)O[C@H]1CC[C@@]2(CCN(c3ccc(CC)cc3)C2=O)CC1 [Example 6, Propyl-carbamic acid [(5α,8β)-2-(4-ethyl-phenyl)-1-oxo-2-aza-spiro[4.5]dec-8-yl]ester] | 100
9 | CCc1ccc(N2CC[C@]3(CC[C@@H](OC(=O)Nc4ccccc4)CC3)C2=O)cc1 [Example 8, Phenyl-carbamic acid [(5α,8β)-2-(4-ethyl-phenyl)-1-oxo-2-aza-spiro[4.5]dec-8-yl]ester] | 270
10 | O=C1N(c2ccc(OC(F)(F)F)cc2)CC[C@]12CC[C@@H](OCc1ccccc1)CC2 [Example 9, (5α,8β)-8-Benzyloxy-2-(4-trifluoromethoxy-phenyl)-2-aza-spiro[4.5]decan-1-one] | 190
11 | Cc1cccc(CO[C@H]2CC[C@@]3(CCN(c4ccc(OC(F)(F)F)cc4)C3=O)CC2)n1 [Example 16, (5α,8β)-8-(6-Methyl-pyridin-2-ylmethoxy)-2-(4-trifluoromethoxy-phenyl)-2-aza-spiro[4.5]decan-1-one] | 100

Stronger by IC50, values ahead:

Row | IC50 [nM] | SMILES
12 | 90 | COc1ccc(CNC(=O)O[C@H]2CC[C@@]3(CCN(c4ccc(OC(F)(F)F)cc4)C3=O)CC2)cc1 [Example 13, (4-Methoxy-benzyl)-carbamic acid [(5α,8β)-1-oxo-2-(4-trifluoromethoxy-phenyl)-2-aza-spiro[4.5]dec-8-yl]ester]
13 | 70 | CCc1ccc(N2CC[C@]3(CC[C@@H](OC(=O)NCc4cccc(F)c4)CC3)C2=O)cc1 [Example 7, (3-Fluoro-benzyl)-carbamic acid [(5α,8β)-2-(4-ethyl-phenyl)-1-oxo-2-aza-spiro[4.5]dec-8-yl]ester]
14 | 70 | O=C(NCc1ccc(F)cc1)O[C@H]1CC[C@@]2(CCN(c3ccc(OC(F)(F)F)cc3)C2=O)CC1 [Example 15, (4-Fluoro-benzyl)-carbamic acid [(5α,8β)-1-oxo-2-(4-trifluoromethoxy-phenyl)-2-aza-spiro[4.5]dec-8-yl]ester]
15 | 60 | O=C(NCc1cccc(F)c1)O[C@H]1CC[C@@]2(CCN(c3ccc(OC(F)(F)F)cc3)C2=O)CC1 [Example 10, (3-Fluoro-benzyl)-carbamic acid [(5α,8β)-1-oxo-2-(4-trifluoromethoxy-phenyl)-2-aza-spiro[4.5]dec-8-yl]ester]
16 | 60 | COc1cccc(CNC(=O)O[C@H]2CC[C@@]3(CCN(c4ccc(OC(F)(F)F)cc4)C3=O)CC2)c1 [Example 12, (3-Methoxy-benzyl)-carbamic acid [(5α,8β)-1-oxo-2-(4-trifluoromethoxy-phenyl)-2-aza-spiro[4.5]dec-8-yl]ester]
17 | 40 | CCCNC(=O)O[C@H]1CC[C@@]2(CCN(c3ccc(OC(F)(F)F)cc3)C2=O)CC1 [Example 11, Propyl-carbamic acid [(5α,8β)-1-oxo-2-(4-trifluoromethoxy-phenyl)-2-aza-spiro[4.5]dec-8-yl]ester]
18 | 30 | CCC[C@]1(O)CC[C@]2(CCN(c3ccc(C(O)C(F)(F)F)cc3)C2=O)CC1 (mixture of isomers) [Example 133, (5α,8α)-8-Hydroxy-8-propyl-2-(4-(2,2,2-trifluoro-1-hydroxyethyl)phenyl)-2-aza-spiro[4.5]decan-1-one]
19 | 20 | O=C(NCc1ccccc1F)O[C@H]1CC[C@@]2(CCN(c3ccc(OC(F)(F)F)cc3)C2=O)CC1 [Example 14, (2-Fluoro-benzyl)-carbamic acid [(5α,8β)-1-oxo-2-(4-trifluoromethoxy-phenyl)-2-aza-spiro[4.5]dec-8-yl]ester]
20 | 10 | CC(C)(C)c1ccc(N2CCC3(CCC(C(O)C(F)(F)F)CC3)C2=O)cc1 (single isomer, unassigned) [Example 360, (5α,8β)-2-(4-tert-Butyl-phenyl)-8-(2,2,2-trifluoro-1-hydroxy-ethyl)-2-aza-spiro[4.5]decan-1-one]
